The target in the assay is T1, Bcl-xL (Homo sapiens, UniProt Q07817).
T1 construct: The gene for the first 209 amino acids of Bcl-xL; made in house; host or cells: E. coli BL21(DE3), pET24a vector
The experiment in a line: Equilibrium immunoassays (ELISA and AMMP data combined), Kd of ligands for Bcl-xL. In kind it is binding. The following applies: for Kd: Kd Determined Using Known [L]0, Monovalent equilibrium model, ELISA and AMMP data; for Kd / Ratio of Fit [L]0 to Known [L]0: mean ± standard error; for Ratio of Fit [L]0 to Known [L]0: simultaneous fit of Kd and [L]0. On the procedure: Sample Preparation. A set of serially diluted Bcl-xL standards, at 2× the desired concentration, were made in sample buffer. For each ligand to be tested (such as peptide ligands), a set of dilutions at 2× the desired concentration was also prepared. The Bcl-xL samples were either mixed 1:1 with sample buffer (standards) or ligands (samples), and allowed to incubate at room temperature for 6 days. After the incubation, the standards and samples were analyzed using ELISA or the ViBE BioAnalyzer (FIG. 1).
ELISA Assays. ELISA plates were incubated overnight at 4° C. with 1.5 nmol of streptavidin (for D1 or Bcl-xL capture ligands) or 54H6 mAb in 1×PBS. Plates were washed 3× with wash buffer (1×PBS+0.1% (v/v) Tween-20) and blocked with 1×PBS+5% (w/v) BSA for two hours. For the D1 or Bcl-xL capture ligands, 100 μL of a 30 nM solution of the reagents was added to wells and incubated for 1 hour. This step was skipped for the 54H6 mAb capture ligand (already immobilized on the plate). After the capture ligand incubation, 100 μL of sample or standards were added in each well, and incubated for 1 hour at room temperature. Plates were washed, incubated with HRP-conjugated probe antibody (such as anti-HIS tag antibody) in sample buffer for 1 hour, washed, and incubated with TMB substrate (Thermo Scientific). Reactions were stopped after approximately 10 minutes with 2 M sulfuric acid, and the absorbance at 450 nm was measured via a plate reader (Molecular Devices). The ligand of interest, capture ligand, target protein, and probe ligand used in example ELISA assays performed are highlighted in the table below.
AMMP Assays. For the AMMP assays, 90 μL of each sample or standards was incubated with 30 μL of magnetic beads (12 μg of beads/mL) and fluorescein-labeled antibody (8 nM) in sample buffer for 1 hour. The experiment's run buffer was 1×PBS+1% (v/v) Tween-20+1% (v/v) heat-treated FBS (Invitrogen; FBS was heat treated for 15 minutes at 65° C. and filtered). BioScale Universal Detection Cartridges were used in performing all of the assays. The device was used per the manufacturer's instructions. The ligand of interest, capture ligand, target protein, and probe ligand used in example AMMP assays performed are highlighted in the table below.
Monovalent and Divalent Analysis. The data for both sets of target concentrations were simultaneously fit for Kd (in the Kd only fit) or Kd and Mo. The data was fitted to the equilibrium model using the lowest absolute deviation method, by varying either only Kd or both Kd and [L]0 simultaneously. The monovalent assay fitting was done by Excel Solver (GRG Non-Lin method) using a set of five initial values. The set of values which provided the lowest error after the fitting were chosen as the final values. For the divalent assays, the fitting was performed by MATLAB's fminsearch function and a set of 10 initial values for Kd1, Kd2, and [L]0. […] For the divalent reverse assay, an extra parameter, Cf, was also determined by fitting (FIG. 7 Reverse Assay).
Enzymatic Kd Calculation Assay. The Kd values of ligands of interest were determined using a protocol modified from Friguet et al., Journal of immunological methods, 77, 305-319 (1985). The samples were prepared and analyzed by ELISA assay in a similar process as described above. The OD450 for the standards and their concentration values were fit to a four parameter logistic curve (standard curve). The concentration of the free Bcl-xL in solution (responsible for the signal) for each sample was calculated using the standard curve, and converted into percent of Bcl-xL bound by ligand in solution.

Experimental findings from patent US20180172683A1, “METHODS FOR ANALYZING THE INTERACTION BETWEEN A TARGET PROTEIN AND A LIGAND” (UNIVERSITY OF SOUTHERN CALIFORNIA, priority 2015, published 2018) are described below.

Peptide text beside a SMILES is read from it. * marks the point of attachment. Biotin = O=C1N[C@H]2[C@H](CS[C@H]2CCCCC(=O)*)N1

T1 sequence (Q07817 1-209 limits assumed): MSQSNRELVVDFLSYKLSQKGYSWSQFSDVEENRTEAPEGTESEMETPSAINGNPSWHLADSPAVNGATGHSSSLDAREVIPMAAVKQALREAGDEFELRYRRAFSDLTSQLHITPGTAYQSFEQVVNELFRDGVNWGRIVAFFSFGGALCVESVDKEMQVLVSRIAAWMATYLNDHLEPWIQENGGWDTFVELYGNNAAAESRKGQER

As a reminder, the kon is a measure of how fast the partners come together. The term Kd denotes the equilibrium constant for the complex coming apart. On to `CC[C@H](C)[C@H](NC(=O)[C@H](C)NC(=O)[C@@H](NC(=O)[C@@H](N)CCSC)[C@@H](C)CC)C(=O)N[C@@H](CO)C(=O)N[C@H](C(=O)N[C@H](C(=O)N[C@@H](Cc1ccc(O)cc1)C(=O)N[C@@H](CC(N)=O)C(=O)N[C@@H](Cc1ccc(O)cc1)C(=O)N[C@@H](CCCCN)C(=O)N[C@@H](CCCCN)C(=O)N[C@@H](C)C(=O)N[C@@H](C)C(=O)N[C@@H](CC(=O)O)C(=O)N[C@@H](Cc1c[nH]cn1)C(=O)N[C@@H](Cc1ccc(O)cc1)C(=O)N[C@@H](C)C(=O)N[C@@H](CCSC)C(=O)N[C@H](C(=O)N[C@@H](CCCCN)C(=O)NCC(=O)N[C@@H](CO)C(=O)N[C@@H](CCCCNC(=O)CCCC[C@@H]1SC[C@@H]2NC(=O)N[C@@H]21)C(N)=O)[C@@H](C)O)[C@@H](C)CC)[C@@H](C)O` [D1] (H-MIAISTIYNYKKAADHYAMTKGSK(Biotin)-NH2), for which the kon amounted to 240000 M⁻¹ s⁻¹, the equilibrium dissociation constant (Kd) came to 0.0085 ± 0.002 nM and the “Ratio of Fit [L]0 to Known [L]0” value is 109% ± 7%.

With `CC[C@H](C)[C@H](NC(=O)[C@@H](NC(=O)[C@@H](NC(=O)[C@@H](NC(=O)[C@H](CCC(=O)O)NC(=O)[C@@H](NC(=O)[C@@H](N)CCSC)[C@@H](C)CC)[C@@H](C)O)[C@@H](C)CC)[C@@H](C)O)C(=O)N[C@@H](Cc1ccc(O)cc1)C(=O)N[C@@H](CC(N)=O)C(=O)N[C@@H](Cc1ccc(O)cc1)C(=O)N[C@@H](CCCCN)C(=O)N[C@@H](CCCCN)C(=O)N[C@@H](C)C(=O)N[C@@H](C)C(=O)N[C@@H](CC(=O)O)C(=O)N[C@@H](Cc1c[nH]cn1)C(=O)N[C@@H](Cc1ccccc1)C(=O)N[C@@H](CO)C(=O)N[C@@H](CCSC)C(=O)N[C@@H](CO)C(=O)N[C@@H](CCSC)C(=O)NCC(=O)N[C@@H](CO)C(=O)N[C@@H](CCCCNC(=O)CCCC[C@@H]1SC[C@@H]2NC(=O)N[C@@H]21)C(N)=O` [E1] (H-MIETITIYNYKKAADHFSMSMGSK(Biotin)-NH2), the on-rate constant (kon) came out at 310000 M⁻¹ s⁻¹, the Kd came to 0.039 ± 0.006 nM and the “Ratio of Fit [L]0 to Known [L]0” value is given as 88% ± 10%.
